Assay results as given in the Kinase Knowledgebase extract (Sharma et al. 2016).

Molecular target: EGFR (UniProt P00533)
Sequence (P00533 whole entry, looked up): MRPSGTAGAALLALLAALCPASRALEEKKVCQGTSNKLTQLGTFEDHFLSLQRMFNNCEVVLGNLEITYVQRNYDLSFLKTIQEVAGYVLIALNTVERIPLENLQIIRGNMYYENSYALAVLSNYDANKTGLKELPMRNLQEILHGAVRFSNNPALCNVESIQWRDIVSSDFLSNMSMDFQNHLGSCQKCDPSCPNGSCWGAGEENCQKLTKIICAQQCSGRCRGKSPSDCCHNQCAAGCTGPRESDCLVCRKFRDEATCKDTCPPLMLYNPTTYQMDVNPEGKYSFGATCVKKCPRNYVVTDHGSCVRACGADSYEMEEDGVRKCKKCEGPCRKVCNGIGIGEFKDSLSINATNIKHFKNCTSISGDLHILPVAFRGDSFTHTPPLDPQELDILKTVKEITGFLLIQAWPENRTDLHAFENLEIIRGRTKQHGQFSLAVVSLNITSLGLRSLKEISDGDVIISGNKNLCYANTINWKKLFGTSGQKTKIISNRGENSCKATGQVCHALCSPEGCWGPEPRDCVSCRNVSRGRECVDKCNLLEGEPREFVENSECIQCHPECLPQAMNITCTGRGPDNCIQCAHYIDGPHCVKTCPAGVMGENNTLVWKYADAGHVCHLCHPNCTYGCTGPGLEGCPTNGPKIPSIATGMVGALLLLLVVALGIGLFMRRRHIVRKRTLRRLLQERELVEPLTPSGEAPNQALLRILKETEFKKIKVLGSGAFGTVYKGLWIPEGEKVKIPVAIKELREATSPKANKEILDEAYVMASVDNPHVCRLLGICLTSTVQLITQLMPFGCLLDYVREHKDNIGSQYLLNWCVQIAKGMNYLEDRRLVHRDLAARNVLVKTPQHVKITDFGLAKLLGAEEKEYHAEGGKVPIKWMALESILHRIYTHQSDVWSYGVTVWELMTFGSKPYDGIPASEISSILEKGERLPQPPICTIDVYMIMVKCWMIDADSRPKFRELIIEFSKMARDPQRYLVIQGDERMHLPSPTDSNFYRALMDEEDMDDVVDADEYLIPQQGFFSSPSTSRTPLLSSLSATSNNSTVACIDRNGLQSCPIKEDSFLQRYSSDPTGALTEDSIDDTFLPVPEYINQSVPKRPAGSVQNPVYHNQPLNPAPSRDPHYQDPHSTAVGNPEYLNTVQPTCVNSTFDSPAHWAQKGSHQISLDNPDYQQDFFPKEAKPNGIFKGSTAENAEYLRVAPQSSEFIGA

IC50, ≤ 1000 nM:
COc1cc2c(NS(C)(=O)=O)ncnc2cc1OC1CCN(C)CC1
COc1cc2c(NS(=O)(=O)c3ccccc3C)ncnc2cc1OCCN1CCN(C)CC1
COc1cc2c(NS(=O)(=O)c3ccc(Sc4cccs4)s3)ncnc2cc1OCCCN(C)C
COc1cc2c(NS(=O)(=O)c3ccc(C)cc3)ncnc2cc1OCCCN(C)C
COc1cc2c(NS(=O)(=O)c3ccccc3C)ncnc2cc1OCCN1CCCCC1
COc1ccc(OC)c(S(=O)(=O)Nc2ncnc3cc(OCCCN(C)C)c(OC)cc23)c1
COc1cc2c(NS(=O)(=O)c3cccc4cccnc34)ncnc2cc1OCCN1CCOCC1
COc1ccc(S(=O)(=O)Nc2ncnc3cc(OCCN4CCN(C)CC4)c(OC)cc23)cc1OC
COc1ccc(OC)c(S(=O)(=O)Nc2ncnc3cc(OC4CCN(C)CC4)c(OC)cc23)c1
COc1cc2c(NS(=O)(=O)c3ccc(Br)cc3)ncnc2cc1OC1CCN(C)CC1
COc1cc2c(NS(=O)(=O)c3ccc(OC(F)(F)F)cc3)ncnc2cc1OCCCN(C)C
COc1cc2c(NS(=O)(=O)c3ccccc3C)ncnc2cc1OC1CCN(C)CC1
COc1ccc(S(=O)(=O)Nc2ncnc3cc(OCCCN(C)C)c(OC)cc23)cc1
COc1cc2c(NS(=O)(=O)c3ccc(C)cc3)ncnc2cc1OCCN1CCOCC1
CCN(CC)CCOc1cc2ncnc(NS(=O)(=O)c3ccc(C)cc3)c2cc1OC
COc1cc2c(NS(=O)(=O)c3ccc(C(F)(F)F)cc3)ncnc2cc1OCCN1CCOCC1
COc1cc2c(NS(=O)(=O)c3cccc(Cl)c3)ncnc2cc1OCCN1CCCCC1
COc1cc2c(NS(=O)(=O)c3ccc(Cl)s3)ncnc2cc1OC1CCN(C)CC1
COc1cc2c(NS(=O)(=O)Cc3ccccc3)ncnc2cc1OC1CCN(C)CC1
COc1cc2c(NS(=O)(=O)c3ccc(Sc4cccs4)s3)ncnc2cc1OCCN1CCCCC1
COc1cc2c(NS(=O)(=O)c3ccc(Cl)cc3)ncnc2cc1OCCN1CCN(C)CC1
COc1cc2c(NS(=O)(=O)c3ccc4ccccc4c3)ncnc2cc1OCCN1CCN(C)CC1
COc1cc2c(NS(=O)(=O)c3cc(Cl)c(Cl)s3)ncnc2cc1OCCN1CCOCC1
COc1cc2c(NS(=O)(=O)c3ccc(C)cc3)ncnc2cc1OCCCN1CCOCC1
COc1cc2c(NS(=O)(=O)c3c(C)cc(C)cc3C)ncnc2cc1OCCCN(C)C
COc1cc2c(NS(=O)(=O)c3c(C)noc3C)ncnc2cc1OCCN1CCOCC1
COc1cc2c(NS(=O)(=O)c3ccccc3Cl)ncnc2cc1OCCN1CCN(C)CC1
COc1cc2c(NS(=O)(=O)c3ccc(F)cc3)ncnc2cc1OCCCN(C)C
COc1cc2c(NS(=O)(=O)c3cccc(Cl)c3)ncnc2cc1OCCN1CCN(C)CC1
COc1cc2c(NS(=O)(=O)c3ccc(Sc4ccccc4)s3)ncnc2cc1OC1CCN(C)CC1
COc1cc2c(NS(=O)(=O)c3c(C)cc(C)cc3C)ncnc2cc1OCCN1CCOCC1
CCN(CC)CCOc1cc2ncnc(NS(=O)(=O)c3ccc(Cl)s3)c2cc1OC
COc1cc2c(NS(=O)(=O)c3ccc(Br)cc3)ncnc2cc1OCCN1CCN(C)CC1
COc1cc2c(NS(=O)(=O)c3ccccc3Cl)ncnc2cc1OCCN1CCCCC1
COc1cc2c(NS(=O)(=O)c3ccccc3)ncnc2cc1OCCN1CCN(C)CC1
COc1ccc(S(=O)(=O)Nc2ncnc3cc(OCCN4CCOCC4)c(OC)cc23)cc1OC
COc1ccc(S(=O)(=O)Nc2ncnc3cc(OCCN4CCOCC4)c(OC)cc23)cc1
COc1cc2c(NS(=O)(=O)c3ccccc3Br)ncnc2cc1OCCN1CCCCC1
COc1cc2c(NS(=O)(=O)c3cccc4cccnc34)ncnc2cc1OC1CCN(C)CC1
COc1cc2c(NS(=O)(=O)c3ccccc3)ncnc2cc1OC1CCN(C)CC1
CCN(CC)CCOc1cc2ncnc(NS(=O)(=O)c3cc(OC)ccc3OC)c2cc1OC
COc1ccc(OC)c(S(=O)(=O)Nc2ncnc3cc(OCCN4CCCCC4)c(OC)cc23)c1
CCN(CC)CCOc1cc2ncnc(NS(=O)(=O)c3cn(C)cn3)c2cc1OC
COc1ccc(OC)c(S(=O)(=O)Nc2ncnc3cc(OCCN4CCOCC4)c(OC)cc23)c1
COc1cc2c(NS(=O)(=O)c3ccc(F)cc3)ncnc2cc1OCCN1CCCCC1
COc1ccc(S(=O)(=O)Nc2ncnc3cc(OC4CCN(C)CC4)c(OC)cc23)cc1
CCN(CC)CCOc1cc2ncnc(NS(=O)(=O)c3c(C)noc3C)c2cc1OC
COc1cc2c(NS(=O)(=O)c3ccccc3C)ncnc2cc1OCCN1CCOCC1
COc1cc2c(NS(=O)(=O)c3cc(Cl)c(Cl)s3)ncnc2cc1OCCCN(C)C
COc1cc2c(NS(=O)(=O)c3ccccc3C#N)ncnc2cc1OCCCN1CCOCC1
CCN(CC)CCOc1cc2ncnc(NS(C)(=O)=O)c2cc1OC
COc1cc2c(NS(=O)(=O)c3ccccc3Br)ncnc2cc1OCCCN(C)C
CCN(CC)CCOc1cc2ncnc(NS(=O)(=O)Cc3ccccc3)c2cc1OC
COc1cc2c(NS(=O)(=O)c3ccc4ccccc4c3)ncnc2cc1OCCN1CCCCC1
CCN(CC)CCOc1cc2ncnc(NS(=O)(=O)c3ccc(F)cc3)c2cc1OC
COc1cc2c(NS(=O)(=O)c3ccc(C)cc3)ncnc2cc1OCCN1CCN(C)CC1
CCN(CC)CCOc1cc2ncnc(NS(=O)(=O)c3cc(Cl)cc(Cl)c3)c2cc1OC
COc1cc2c(NS(=O)(=O)c3cccc(Cl)c3Cl)ncnc2cc1OCCCN(C)C
COc1cc2c(NS(=O)(=O)c3cc(Cl)cc(Cl)c3)ncnc2cc1OCCCN(C)C
CCN(CC)CCOc1cc2ncnc(NS(=O)(=O)c3cccc(Br)c3)c2cc1OC
COc1cc2c(NS(=O)(=O)c3ccc(F)cc3)ncnc2cc1OCCN1CCOCC1
COc1cc2c(NS(=O)(=O)c3ccc4ccccc4c3)ncnc2cc1OCCCN(C)C
COc1cc2c(NS(=O)(=O)c3cccc(Br)c3)ncnc2cc1OCCN1CCN(C)CC1
COc1cc2c(NS(C)(=O)=O)ncnc2cc1OCCN1CCOCC1
COc1cc2c(NS(=O)(=O)c3cccc4cccnc34)ncnc2cc1OCCN1CCCCC1
COc1cc2c(NS(=O)(=O)c3ccc(Sc4cccs4)s3)ncnc2cc1OCCN1CCOCC1
CCN(CC)CCOc1cc2ncnc(NS(=O)(=O)c3ccc(OC)cc3)c2cc1OC
COc1cc2c(NS(=O)(=O)c3cn(C)cn3)ncnc2cc1OCCN1CCOCC1
COc1cc2c(NS(=O)(=O)c3ccccc3)ncnc2cc1OCCN1CCCCC1
CCN(CC)CCOc1cc2ncnc(NS(=O)(=O)c3ccc(C(C)(C)C)cc3)c2cc1OC
CCN(CC)CCOc1cc2ncnc(NS(=O)(=O)c3ccc(OC)c(OC)c3)c2cc1OC
COc1cc2c(NS(=O)(=O)c3cc(Cl)c(Cl)s3)ncnc2cc1OCCN1CCN(C)CC1
COc1cc2c(NS(=O)(=O)c3c(C)cc(C)cc3C)ncnc2cc1OCCN1CCCCC1
COc1cc2c(NS(=O)(=O)c3ccc4ccccc4c3)ncnc2cc1OCCN1CCOCC1
CCN(CC)CCOc1cc2ncnc(NS(=O)(=O)c3ccc(Cl)cc3)c2cc1OC
COc1cc2c(NS(=O)(=O)c3cccc(Br)c3)ncnc2cc1OCCN1CCOCC1
CCN(CC)CCOc1cc2ncnc(NS(=O)(=O)c3cccc(Cl)c3)c2cc1OC
COc1cc2c(NS(=O)(=O)Cc3ccccc3)ncnc2cc1OCCCN(C)C
CCN(CC)CCOc1cc2ncnc(NS(=O)(=O)c3ccc(OC(F)(F)F)cc3)c2cc1OC
CCN(CC)CCOc1cc2ncnc(NS(=O)(=O)c3ccccc3Br)c2cc1OC
COc1cc2c(NS(=O)(=O)c3ccc4ccccc4c3)ncnc2cc1OC1CCN(C)CC1
COc1ccc(S(=O)(=O)Nc2ncnc3cc(OC4CCN(C)CC4)c(OC)cc23)cc1OC
CCN(CC)CCOc1cc2ncnc(NS(=O)(=O)c3ccccc3Cl)c2cc1OC
COc1cc2c(NS(=O)(=O)Cc3ccccc3)ncnc2cc1OCCN1CCN(C)CC1
COc1cc2c(NS(=O)(=O)c3ccc(C)cc3)ncnc2cc1OC1CCN(C)CC1
COc1cc2c(NS(=O)(=O)c3ccccc3Cl)ncnc2cc1OCCN1CCOCC1
